Read-outs that look alike come from different tables or passages of the source. Values belong to the molecule of their own block, whether it stands above or below them.
Columns and labels:
[1] = system: TNF alpha, BALB/c mice injected with LPS; experiment: Mouse model of LPS-induced TNF alpha production; assay type: in vivo; conditions: Table 6, mouse LPS; for mLPS 8 h percent inhibition: head '8 h'
Experimental: Mouse Model of LPS-induced TNF Alpha Production:
TNF alpha was induced in 10-12 week old BALB/c female mice by tail vein injection with 100 ng lipopolysaccharide (from S. Typhosa) in 0.2 ml saline. One hour later mice were bled from the retroorbital sinus and TNF concentrations in serum from clotted blood were quantified by ELISA.
Efficacy was determined at each time point as percent inhibition of serum TNF levels relative to LPS injected mice that received vehicle only.
In vivo assessment of the ability of the compounds to inhibit LPS-stimulated TNP release in the mouse is shown in the column identified as: • “Mouse LPS Model, % TNF inhib @ dose @ predose time” wherein in the dose is milligram per kilogram (mpk) administered by oral gavage and the predose time indicates the number of hours before LPS challenge when the compound is administered.

[2] = target: T1, human p38 kinase alpha (Homo sapiens, UniProt Q16539); experiment: p38 kinase in vitro assay, phosphorylation of biotinylated PHAS-I with 32P-ATP; assay type: biochemical; conditions: for IC50: read-out: P38 alpha kinase IC50; for P38 alpha kinase % inhib @ conc. (uM) / inhibition at 1 µM: @ 1.0 uM; for inhibition at 1 µM: read-out: P38 alpha kinase % inhib @ conc.
T1 construct: GST (N, cleaved yes); made in house; host or cells: E. coli DH10B

[3] = system: TNF-α, U937 human histiocytic lymphoma cell line; experiment: LPS stimulation of TNF production by U937 cells; assay type: cell-based; conditions: for U937 Cell % inhib @ conc. / U937 Cell IC50, uM or % inhib @ conc. (uM): % inhib: @ 10.0 uM; for U937 Cell % inhib @ conc. (uM): @ 1.0 uM; for inhibition at 1 µM: U-937, @ 1.0 uM; for IC50: human U937 cells stimulated with LPS, read-out: U937 Cell IC50
Summary of the method: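 U937 cells differentiated 24 h with 20 ng/ml PMA, rested 24-48 h, used at 2 million cells/ml. Compounds in 0.1% DMSO final; LPS (E. coli, 100 ng/ml final) stimulation for 4 h at 37° C. Released TNF-α measured by ELISA; IC50 (μM).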

[4] = TNF production, LPS-stimulated U937 cells
[5] = in vitro P38-alpha kinase inhibition
[6] = TNF production in human U937 cells stimulated with LPS
[7] = Homo sapiens, TNF production, LPS-stimulated U937 cells, read-out: U937 Cell % inhib @ conc.
[8] = TNF production, U937 cells stimulated with LPS
[9] = Homo sapiens, U-937, TNF production

T1 sequence (Q16539 whole entry): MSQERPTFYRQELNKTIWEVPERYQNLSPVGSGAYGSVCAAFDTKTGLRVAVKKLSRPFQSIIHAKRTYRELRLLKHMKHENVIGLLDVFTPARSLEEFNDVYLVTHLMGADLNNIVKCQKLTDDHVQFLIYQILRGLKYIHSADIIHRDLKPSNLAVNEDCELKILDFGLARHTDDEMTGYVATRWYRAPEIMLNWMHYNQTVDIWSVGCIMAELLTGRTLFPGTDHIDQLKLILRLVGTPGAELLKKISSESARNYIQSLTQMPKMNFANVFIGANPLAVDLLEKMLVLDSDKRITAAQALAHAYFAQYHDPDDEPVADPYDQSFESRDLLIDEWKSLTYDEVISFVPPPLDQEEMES

SMILES: Fc1ccc(-c2n[nH]cc2-c2ccnc(NC3CCNCC3)c2)cc1 [Example A-277, 4-[3-(4-fluorophenyl)-1H-pyrazol-4-yl]-N-4-piperadinyl-2-pyridinamine]
mLPS 8 h percent inhibition ([1]; dose 30, oral gavage): 33%

SMILES: Cn1cc(-c2ccncc2)c(-c2ccc(F)c(F)c2)n1 [Example A-242, 4-[3-(3,4-difluorophenyl)-1-methyl-1H-pyrazol-4-yl]pyridine]
mLPS 8 h percent inhibition ([1]; dose 30, oral gavage): 95%

SMILES: CN(C)CCn1cc(-c2ccnc(NCc3ccc(F)cc3)c2)c(-c2ccc(F)cc2)n1 [Example A-274, 4-[1-[2-(dimethylamino)ethyl]-3-(4-fluorophenyl)-1H-pyrazol-4-yl]-N-[[4-fluorophenyl)methyl]-2-pyridinamine]
mLPS 8 h percent inhibition ([1]; dose 30, oral gavage): 21%

SMILES: Fc1ccc(-c2n[nH]c(NCCCN3CCOCC3)c2-c2ccncc2)cc1 [Example A-286, N-[5-(4-fluorophenyl)-4-(4-pyridinyl)-1H-pyrazol-3-yl]-4-morpholinepropanamine]
mLPS 8 h percent inhibition ([1]; dose 30, oral gavage): 29%

SMILES: Cn1cc(-c2ccncc2)c(-c2ccc(F)cc2)n1 [Example A-212, 4-[3-(4-fluorophenyl)-1-methyl-1H-pyrazol-4-yl]pyridine]
mLPS 8 h percent inhibition ([1]; dose 10, oral gavage): 20%

SMILES: Fc1ccc(-c2nn(CCN3CCOCC3)cc2-c2ccncc2)cc1 [Example A-216, 4-[2-[3-(4-fluorophenyl)-4-(4-pyridinyl)-1H-pyrazol-1-yl]ethyl]morpholine]
mLPS 8 h percent inhibition ([1]; dose 30, oral gavage): 27%

SMILES: Cc1cccc(-c2nn(C)cc2-c2ccnc(C)c2)c1 [Example A-235, 2-methyl-4-[1-methyl-3 (or 5)-(3-methylphenyl)-1H-pyrazol-4-yl]pyridine]
inhibition in vivo at 30 mg/kg ([1]; 1 h before LPS, 30 mpk, oral gavage, read-out: mLPS 1 h, 30 mpk percent inhibition): 56%

SMILES: OCCCNc1cc(-c2c[nH]nc2-c2ccc(F)cc2)ccn1 [Example A-282, 3-[[4-(3-(4-fluorophenyl)-1H-pyrazol-4-yl]-2-pyridinyl]amino]-1-propanol]
mLPS 8 h percent inhibition ([1]; dose 30, oral gavage): 30%

SMILES: C#CCn1ncc(-c2ccncc2)c1-c1ccc(F)cc1 [Example A-295, 4-[5-(4-fluorophenyl)-1-(2-propynyl)-1H-pyrazol-4-yl]pyridine]
mLPS 8 h percent inhibition ([1]; dose 30, oral gavage): 94%

SMILES: Fc1ccc(-c2n[nH]cc2-c2ccncc2)cc1F [Example A-239, 4-[3-(3,4-difluorophenyl)-1H-pyrazol-4-yl]pyridine]
mLPS 8 h percent inhibition ([1]; dose 30, oral gavage): 51%

SMILES: CCN(Cc1ccncc1)C(=O)Cn1nc(-c2ccc(F)cc2)c(-c2ccncc2)c1C [Example B-2381]
P38 alpha kinase % inhib @ conc. ([2]; @ 100.0 uM): 68% @
U937 Cell % inhib @ conc. [3, 4]: 2.0% @

SMILES: Cc1c(-c2ccncc2)c(-c2ccc(F)cc2)nn1CC(=O)N1CCC[C@H]1CN1CCCC1 [Example B-2384]
P38 alpha kinase % inhib @ conc. ([2]; @ 100.0 uM): 49% @
U937 Cell % inhib @ conc. [3, 4]: 10.0% @

SMILES: COc1ccc(CC(=O)NC(Cc2ccccc2)c2[nH]nc(-c3ccc(F)cc3)c2-c2ccncc2)cc1OC (stereo not shown) [Example B-0815]
IC50 [2, 5]: 2110 nM
IC50 [3, 9]: > 1000 nM

SMILES: O=C(NCCc1[nH]nc(-c2ccc(F)cc2)c1-c1ccncc1)c1ccc(F)cc1C(F)(F)F [Example B-1139]
IC50 [2, 5]: 41 nM
inhibition at 1 µM ([3]; Homo sapiens, TNF production, U937 cells stimulated with LPS, read-out: U937 Cell % inhib @ conc.): 29%

SMILES: COc1ccc(C2OCCN2C(=O)Cn2nc(-c3ccc(F)cc3)c(-c3ccncc3)c2C)cc1OC (stereo not shown) [Example B-2399]
P38 alpha kinase IC50, uM or % inhib @ conc. (uM): % inhib ([2]; @ 10.0 uM): 69.0% @
U937 Cell IC50, uM or % inhib @ conc. (uM): % inhib [3, 8]: 18.0% @

SMILES: CNC(=O)CCC(NC(=O)Nc1ccccc1F)c1[nH]nc(-c2ccc(F)cc2)c1-c1ccncc1 (stereo not shown) [Example B-0881]
IC50 [2, 5]: 1360 nM
IC50 [3, 9]: > 1000 nM

SMILES: Cc1c(-c2ccncc2)c(-c2ccc(F)cc2)nn1CC(=O)N(C)CC(=O)N(C)C [Example B-2412]
P38 alpha kinase IC50, uM or % inhib @ conc. (uM): % inhib ([2]; @ 10.0 uM): 40.0% @
U937 Cell IC50, uM or % inhib @ conc. (uM): % inhib [3, 8]: 31.0% @

SMILES: Cc1c(-c2ccncc2)c(-c2ccc(F)cc2)nn1CC(=O)N1CCCCC1CCN1CCCCC1 (stereo not shown) [Example B-2411]
P38 alpha kinase IC50, uM or % inhib @ conc. (uM): % inhib ([2]; @ 100.0 uM): 26% @
U937 Cell IC50, uM or % inhib @ conc. (uM): % inhib [3, 8]: 13.0% @

SMILES: COc1cc(NC(=O)CCNC(=O)Cn2nc(-c3ccc(F)cc3)c(-c3ccncc3)c2C)cc2ccccc12 [Example B-2298]
IC50 ([2]; in vitro P38-alpha kinase): 290 nM
IC50 ([3]; TNF production): 4220 nM

SMILES: O=C(NCCc1[nH]nc(-c2ccc(F)cc2)c1-c1ccncc1)c1cccc(C(F)(F)F)c1F [Example B-1138]
IC50 [2, 5]: 1820 nM
IC50 [3, 9]: > 1000 nM

SMILES: O=C(NC(Cc1ccccc1)c1[nH]nc(-c2ccc(F)cc2)c1-c1ccncc1)c1ccccn1 (stereo not shown) [Example B-0823]
IC50 [2, 5]: 2390 nM
IC50 [3, 9]: > 1000 nM

SMILES: CCN(CC)CCN(Cc1ccc(Cl)cc1)C(=O)Cn1nc(-c2ccc(F)cc2)c(-c2ccncc2)c1C [Example B-2398]
P38 alpha kinase IC50, uM or % inhib @ conc. (uM): % inhib ([2]; @ 100.0 uM): 55% @
U937 Cell IC50, uM or % inhib @ conc. (uM): % inhib [3, 8]: 10.0% @

SMILES: O=C(NCc1[nH]nc(-c2ccc(F)cc2)c1-c1ccncc1)c1c(Cl)cc(Cl)cc1Cl [Example B-0019]
inhibition at 1 µM [2]: 84%
inhibition at 10 µM ([3]; Homo sapiens, U-937, @ 10.0 uM, TNF production, U937 cells stimulated with LPS, read-out: U937 Cell % inhib @ conc.): 100%

More lines, main results first:

IC50 [2, 5]: 2900 nM
SMILES: O=C(NC(Cc1ccccc1)c1[nH]nc(-c2ccc(F)cc2)c1-c1ccncc1)C1CCCN1 (stereo not shown) [Example B-0794]
U937 Cell % inhib @ conc. (uM) [3, 6]: 2.0% @

IC50 ([2]; in vitro P38-alpha kinase): 870 nM
SMILES: O=S(=O)(c1ccc(-c2ccon2)s1)N1CCC(c2[nH]nc(-c3ccc(F)cc3)c2-c2ccncc2)CC1 [Example B-1440]
inhibition at 1 µM [3, 7]: 3%

IC50 [2, 5]: 3590 nM
SMILES: CC(NC(=O)NC(C)c1[nH]nc(-c2ccc(F)cc2)c1-c1ccncc1)c1ccccc1 (stereo not shown) [Example B-0591]
U937 Cell % inhib @ conc. (uM) [3, 6]: 29.0% @

P38 alpha kinase % inhib @ conc. (uM) [2]: 69.0% @
SMILES: O=C(NCCc1[nH]nc(-c2ccc(F)cc2)c1-c1ccncc1)c1ccc(F)c(F)c1F [Example B-0997]
U937 Cell % inhib @ conc. (uM) [3, 8]: 22.0% @

P38 alpha kinase % inhib @ conc. (uM) [2]: 63.0% @
SMILES: COc1cccc(CC(=O)NCCc2[nH]nc(-c3ccc(F)cc3)c2-c2ccncc2)c1 [Example B-1001]
U937 Cell % inhib @ conc. (uM) [3, 8]: 31.0% @

IC50 ([2]; in vitro P38-alpha kinase): < 100 nM
IC50 [3, 9]: 92 nM
SMILES: O=C(Nc1ccccc1F)N1CCC(c2[nH]nc(-c3ccc(F)cc3)c2-c2ccncc2)CC1 [Example B-1379]

IC50 [2, 5]: 250 nM
SMILES: CNC(=O)NC(Cc1ccccc1)c1[nH]nc(-c2ccc(F)cc2)c1-c1ccncc1 (stereo not shown) [Example B-0730]
inhibition at 1 µM ([3]; Homo sapiens, TNF production in human U937 cells stimulated with LPS, read-out: U937 Cell % inhib @ conc.): 11%

P38 alpha kinase % inhib @ conc. (uM) [2]: 87.0% @
SMILES: O=S(=O)(NCCc1[nH]nc(-c2ccc(F)cc2)c1-c1ccncc1)c1ccccc1F [Example B-1020]
U937 Cell % inhib @ conc. (uM) [3, 8]: 36.0% @

P38 alpha kinase % inhib @ conc. ([2]; @ 10.0 uM): 58.0% @
SMILES: Cc1c(-c2ccncc2)c(-c2ccc(F)cc2)nn1CC(=O)NC1CCCC1 [Example B-2333]
U937 Cell % inhib @ conc. [3, 4]: 36.0% @

IC50 [2, 5]: 1080 nM
IC50 [3, 9]: > 1000 nM
SMILES: O=C(NC(Cc1ccccc1)c1[nH]nc(-c2ccc(F)cc2)c1-c1ccncc1)c1ccccc1 (stereo not shown) [Example B-0819]

IC50 [2, 5]: 10100 nM
SMILES: CC(NC(=O)c1cccc(C(F)(F)F)c1F)c1[nH]nc(-c2ccc(F)cc2)c1-c1ccncc1 (stereo not shown) [Example B-0687]
U937 Cell % inhib @ conc. (uM) [3, 6]: 15.0% @

inhibition at 1 µM [2]: 95%
IC50 [3, 9]: 10000 nM
SMILES: COc1ccc(CC(=O)NCc2[nH]nc(-c3ccc(F)cc3)c2-c2ccncc2)cc1OC [Example B-0034]

IC50 [2, 5]: 620 nM
SMILES: CC(NC(=O)c1cccc(F)c1)c1[nH]nc(-c2ccc(F)cc2)c1-c1ccncc1 (stereo not shown) [Example B-0694]
U937 Cell % inhib @ conc. (uM) [3, 6]: 21.0% @

P38 alpha kinase IC50, uM or % inhib @ conc. (uM): % inhib ([2]; @ 10.0 uM): 39.0% @
U937 Cell IC50, uM or % inhib @ conc. (uM): % inhib [3, 8]: 10.0% @
SMILES: COc1ccc2[nH]c3c(c2c1)CCN(C(=O)Cn1nc(-c2ccc(F)cc2)c(-c2ccncc2)c1C)C3 [Example B-2408]

IC50 [2, 5]: 2420 nM
SMILES: CC(NC(=O)Nc1cccc(F)c1)c1[nH]nc(-c2ccc(F)cc2)c1-c1ccncc1 (stereo not shown) [Example B-0595]
U937 Cell % inhib @ conc. (uM) [3, 6]: 22.0% @

P38 alpha kinase % inhib @ conc. (uM) [2]: 74.0% @
SMILES: O=C(NCCc1[nH]nc(-c2ccc(F)cc2)c1-c1ccncc1)c1ccccc1 [Example B-1003]
U937 Cell % inhib @ conc. (uM) [3, 8]: 29.0% @

IC50 ([2]; in vitro P38-alpha kinase): 40 nM
IC50 [3, 9]: 270 nM
SMILES: O=C(c1ccc(I)cc1)N1CCC(c2[nH]nc(-c3ccc(F)cc3)c2-c2ccncc2)CC1 [Example B-1366]

IC50 ([2]; in vitro P38-alpha kinase): 260 nM
SMILES: O=S(=O)(c1ccccc1)N1CCC(c2[nH]nc(-c3ccc(F)cc3)c2-c2ccncc2)CC1 [Example B-1433]
inhibition at 1 µM [3, 7]: 21%

IC50 ([2]; in vitro P38-alpha kinase): 570 nM
IC50 [3, 9]: 370 nM
SMILES: O=C(c1cccs1)N1CCC(c2[nH]nc(-c3ccc(F)cc3)c2-c2ccncc2)CC1 [Example B-1384]

P38 alpha kinase % inhib @ conc. (uM) [2]: 78.0% @
SMILES: C[C@@H](NC(=O)NCCc1[nH]nc(-c2ccc(F)cc2)c1-c1ccncc1)c1ccccc1 [Example B-1045]
U937 Cell % inhib @ conc. (uM) [3, 8]: 25.0% @
